pIC50: −log10 of the molar value.
What was measured:
[1] = test system: PTPα catalytic activity; settings: read-out: IC50 against PTPα catalytic activity in vitro; cited from earlier work
[2] = test system: sympathetic nerve density in the infarct; experiment: Sympathetic reinnervation of the infarct after myocardial ischemia-reperfusion (TH+ fiber density); assay type: in vivo, mouse; settings: mice, s.c. daily days 3-10 after MI; HJ-01, HJ-02 10 mg/kg, ISP 10 μmol; day 14
[3] = test system: ISO-stimulated PVCs; experiment: Isoproterenol-induced arrhythmias after MI, ECG telemetry; assay type: in vivo, mouse; settings: MI mice, s.c. daily days 3-10; HJ-01, HJ-02 10 mg/kg, ISP 10 μmol; 10 μg isoproterenol, 14 days after MI
[4] = test system: sympathetic neurons; experiment: Sympathetic outgrowth assay: dissociated sympathetic neurons on laminin or laminin and CSPGs, live cell imaging; settings: 10 ng/mL NGF, imaging over 30 hr
[5] = test system: cardiac vasculature; experiment: Vascular immunohistochemistry (α-SMA, CD31) after MI; assay type: in vivo, mouse; settings: 14 days after MI; infarct, peri-infarct, remote myocardium
[6] = test system: PTPσ inhibition of TrkB signaling (ERK1/2 phosphorylation); experiment: TrkB stimulated ERK phosphorylation in TrkB-HEK-293t cells co-expressing full-length PTPσ; settings: BDNF-induced
[7] = test system: infarct size; experiment: Infarct size after myocardial ischemia-reperfusion; assay type: in vivo, mouse; settings: MI mice, treatment beginning three days after reperfusion (days 3-10); infarct as percentage of LV
[8] = test system: sympathetic axons; experiment: Compartmentalized cultures: microfluidic chambers, axonal compartment coated with CSPGs; settings: added to the axonal (distal) compartment for 3 hours
[9] = target: T1, PTPσ D1D2 catalytic domain (Homo sapiens, UniProt Q13332); settings: for D1 phosphatase activity (pNPP): 1 μM HJ-02, orthovanadate 10 mM
T1 sequence (Q13332 1304-1948 limits assumed): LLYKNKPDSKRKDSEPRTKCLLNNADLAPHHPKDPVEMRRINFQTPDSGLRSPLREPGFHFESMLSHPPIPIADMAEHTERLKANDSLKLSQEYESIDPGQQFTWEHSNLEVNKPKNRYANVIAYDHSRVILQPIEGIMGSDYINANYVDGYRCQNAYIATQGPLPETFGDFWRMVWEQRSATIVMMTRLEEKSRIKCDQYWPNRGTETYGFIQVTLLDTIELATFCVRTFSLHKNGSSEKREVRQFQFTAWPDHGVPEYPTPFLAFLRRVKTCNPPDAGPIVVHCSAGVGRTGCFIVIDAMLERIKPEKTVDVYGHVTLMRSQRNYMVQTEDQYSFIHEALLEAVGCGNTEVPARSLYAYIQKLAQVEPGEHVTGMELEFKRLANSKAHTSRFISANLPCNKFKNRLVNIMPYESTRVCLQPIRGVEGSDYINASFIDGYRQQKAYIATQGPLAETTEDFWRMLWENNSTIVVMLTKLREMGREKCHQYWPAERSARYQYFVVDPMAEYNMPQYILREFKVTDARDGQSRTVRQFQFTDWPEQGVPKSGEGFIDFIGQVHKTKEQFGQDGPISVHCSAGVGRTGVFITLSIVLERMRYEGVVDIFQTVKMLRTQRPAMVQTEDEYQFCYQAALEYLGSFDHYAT

[10] = test system: cardiac output and ejection fraction; experiment: Echocardiography of cardiac function after MI; assay type: in vivo, mouse; settings: MI mice, response to isoproterenol
[11] = test system: panel of other protein phosphatases; experiment: Screen against a panel of other protein phosphatases; assay type: biochemical
[12] = target: TrkA-PTPσ interaction (Homo sapiens, UniProt Q13332); experiment: Immunoprecipitation assay: TrkA-RFP pulldown of PTPσ in transfected HEK-293t cells; settings: 1 uM; HEK-293 cells treated with CSPGs and NGF; normalized to vehicle
Chain of TrkA-PTPσ interaction (Q13332 30-1948): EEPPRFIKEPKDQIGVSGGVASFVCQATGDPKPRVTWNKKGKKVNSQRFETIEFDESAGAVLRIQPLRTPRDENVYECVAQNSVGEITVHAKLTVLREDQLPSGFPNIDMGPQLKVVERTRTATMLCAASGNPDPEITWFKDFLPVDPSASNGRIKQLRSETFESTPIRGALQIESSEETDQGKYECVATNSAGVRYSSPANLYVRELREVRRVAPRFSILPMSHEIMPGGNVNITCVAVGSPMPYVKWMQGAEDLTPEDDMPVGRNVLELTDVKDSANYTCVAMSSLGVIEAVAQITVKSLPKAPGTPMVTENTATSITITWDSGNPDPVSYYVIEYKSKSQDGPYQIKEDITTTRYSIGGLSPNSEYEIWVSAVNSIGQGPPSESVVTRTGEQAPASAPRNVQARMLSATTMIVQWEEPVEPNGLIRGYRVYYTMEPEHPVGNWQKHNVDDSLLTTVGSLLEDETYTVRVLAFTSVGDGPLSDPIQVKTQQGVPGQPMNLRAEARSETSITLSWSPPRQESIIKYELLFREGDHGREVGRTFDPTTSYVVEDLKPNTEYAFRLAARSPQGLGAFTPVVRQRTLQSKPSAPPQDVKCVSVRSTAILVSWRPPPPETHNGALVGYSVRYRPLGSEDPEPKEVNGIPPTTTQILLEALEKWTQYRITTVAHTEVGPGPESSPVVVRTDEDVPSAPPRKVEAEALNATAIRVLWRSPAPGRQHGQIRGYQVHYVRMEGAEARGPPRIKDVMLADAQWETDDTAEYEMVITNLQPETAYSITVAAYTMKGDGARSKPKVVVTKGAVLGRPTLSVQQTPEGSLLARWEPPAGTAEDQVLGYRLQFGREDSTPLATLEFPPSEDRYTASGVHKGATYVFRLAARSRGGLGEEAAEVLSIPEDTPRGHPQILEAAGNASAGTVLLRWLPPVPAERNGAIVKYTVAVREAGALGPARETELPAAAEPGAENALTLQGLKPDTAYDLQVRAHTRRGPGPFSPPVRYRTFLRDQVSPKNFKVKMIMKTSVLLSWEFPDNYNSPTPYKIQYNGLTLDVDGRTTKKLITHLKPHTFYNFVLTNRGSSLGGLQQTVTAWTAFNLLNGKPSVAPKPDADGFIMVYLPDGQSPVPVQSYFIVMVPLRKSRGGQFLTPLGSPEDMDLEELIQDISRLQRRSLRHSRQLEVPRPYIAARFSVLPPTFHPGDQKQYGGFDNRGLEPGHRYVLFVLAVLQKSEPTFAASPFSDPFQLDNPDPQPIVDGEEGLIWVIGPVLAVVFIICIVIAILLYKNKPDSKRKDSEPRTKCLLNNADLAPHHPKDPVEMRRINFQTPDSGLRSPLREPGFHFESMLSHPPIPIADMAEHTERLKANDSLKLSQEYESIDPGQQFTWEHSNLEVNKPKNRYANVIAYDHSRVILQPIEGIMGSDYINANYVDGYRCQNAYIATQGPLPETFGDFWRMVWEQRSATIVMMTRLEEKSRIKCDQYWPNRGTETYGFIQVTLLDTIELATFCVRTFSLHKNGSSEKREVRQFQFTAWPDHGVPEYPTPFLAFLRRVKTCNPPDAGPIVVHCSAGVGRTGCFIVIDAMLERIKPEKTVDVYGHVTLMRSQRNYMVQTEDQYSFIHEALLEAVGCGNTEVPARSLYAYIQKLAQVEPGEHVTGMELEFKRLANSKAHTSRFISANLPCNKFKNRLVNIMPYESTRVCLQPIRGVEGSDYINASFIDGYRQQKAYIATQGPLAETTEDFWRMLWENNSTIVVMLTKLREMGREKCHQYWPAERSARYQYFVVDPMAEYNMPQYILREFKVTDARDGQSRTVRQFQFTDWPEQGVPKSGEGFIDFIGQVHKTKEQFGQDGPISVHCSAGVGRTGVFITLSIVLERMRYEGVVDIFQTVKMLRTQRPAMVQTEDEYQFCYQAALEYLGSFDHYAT

Compound	nerve density within the infarct [2]	ISO-stimulated arrhythmias (PVCs) [3]	concentration fully restoring sympathetic axon outgrowth over CSPGs [4] [nM]	density of vasculature (α-SMA, CD31) [5]	concentration rescuing ERK1/2 phosphorylation [6] [nM]	infarct size [7]	defasiculation of axon bundles growing over CSPGs [8]	rate of axon outgrowth over CSPGs [8]	beta adrenergic receptor supersensitivity [10]	inhibition of other protein phosphatases in the screen [11]	D1 phosphatase activity (pNPP) [9]	further results
CC1(C)Cc2c(O)c(C=O)c3c(c2C1)C(=O)OC(O)C3 (stereo not drawn) [Illudalic acid]	–	–	–	–	–	–	–	–	–	–	–	pIC50 [1]: ~6.00
C=CC(=O)Nc1cc(OC)c(OCC2CCCCC2)cc1C(=O)O [HJ-01, 2-acrylamido-5-(cyclohexylmethoxy)-4-methoxybenzoic Acid]	restored nerve density within the infarct to the density in sham and uninjured peri-infarct myocardium	had arrhythmias similar to sham mice	100	no difference in the density of vasculature between any treatment groups	100	significantly smaller infarcts compared to vehicle hearts	stimulated the defasiculation of axon bundles	enhanced the rate of axon outgrowth	prevented beta adrenergic receptor supersensitivity	neither HJ-01 nor HJ-02 inhibited any of the protein phosphatases	–	catalytic activity of recombinant PTPσ ([9]; concluding statement, no concentration printed for HJ-01): do not inhibit the catalytic activity of recombinant PTPσ
[Na+].[Na+].[Na+].[O]=[V]([O-])([O-])[O-] [orthovanadate, sodium-orthovanadate, reference compound]	–	–	–	–	–	–	–	–	–	–	negligible phosphatase activity	–
CCC(=O)Nc1cc(OC)c(OCC2CCCCC2)cc1C(=O)O [HJ-03, 5-(cyclohexylmethoxy)-4-methoxy-2-propionamidobenzoic Acid]	–	–	–	–	–	–	–	–	–	–	–	amount of PTPRS co-immunoprecipitated with TrkA-RFP [12]: had no effect
chondroitinase ABC [reference compound]	–	–	–	–	–	–	stimulated the defasiculation of axon bundles	enhanced the rate of axon outgrowth	–	–	–	–
C=CC(=O)Nc1cc(OC)c(OCCCCCC)cc1C(=O)O [HJ-02, 2-acrylamido-5-(hexyloxy)-4-methoxybenzoic Acid]	restored nerve density within the infarct to the density in sham and uninjured peri-infarct myocardium	had arrhythmias similar to sham mice	30	no difference in the density of vasculature between any treatment groups	10	significantly smaller infarcts compared to vehicle hearts	stimulated the defasiculation of axon bundles	enhanced the rate of axon outgrowth	prevented beta adrenergic receptor supersensitivity	neither HJ-01 nor HJ-02 inhibited any of the protein phosphatases	did not inhibit D1 phosphatase activity	–
